US6541471B1, “Benzenesulphonamide compounds” (Les Laboratoires Servier, priority 2001, dated 2003)

Tests used:
[1] = system: platelet aggregation produced by 5-hydroxytryptamine in human platelet-rich plasma (PRP); experiment: Platelet aggregation in man induced by 5-hydroxytryptamine; assay type: cell-based; settings: 5-hydroxytryptamine 10 μM in the presence of 0.3 μM adenosine diphosphate and 1 μM adrenalin, read-out: IC50, inhibition of platelet aggregation produced by 5-hydroxytryptamine
Experimental: (§1) Venous blood is obtained from human volunteers who have not taken aspirin for at least 14 days prior to the experiment. The blood is removed over sodium citrate (0.109 M) (1 vol. of citrate over 9 vol. of blood). Platelet-rich plasma (PRP) is obtained by centrifugation (20° C.) at 200 g for 10 minutes. The number of platelets is on average 250000 PL/mm^3. The PRP is stored at room temperature until the test and is used within 2 hours of having been taken. The TXA2 agonist U46619 is used at a concentration of 1 μM and 5-hydroxytryptamine is used at a concentration of 10 μM, the latter in the presence of 0.3 μM adenosine diphosphate and 1 μM adrenalin.

[2] = system: platelet aggregation induced by the TXA2 agonist U46619 in human platelet-rich plasma (PRP); experiment: Platelet aggregation in man induced by the TXA2 agonist U46619; assay type: cell-based; settings: U46619 1 μM, read-out: IC50, inhibition of platelet aggregation induced by the TXA2 agonist
Experimental: as §1

For `CN(C)CCCOc1ccccc1CCc1cc(CCNS(=O)(=O)c2ccc(Cl)cc2)cc(CCC(=O)O)c1` [Example 2, 3-[3-(2-{[(4-Chlorophenyl)sulphonyl]amino}ethyl)-5-(2-{2-[3-(dimethylamino)propoxy]phenyl}ethyl)phenyl]propanoic acid], the IC50 [1] was 960 nM and the IC50 [2] was 3300 nM.
